For the experiment, the system named is human normal keratinocytes (NHEKs). Description: ROS production after oxidative stress (DCFH-DA method). The format is cell-based. Conditions: 200 μM. As to the method: The anti-oxidant properties of Raphanus sativus L. root extract was evaluated using human normal keratinocytes (NHEKs) by quantification of Reactive Oxygen Species (ROS) production after oxidative stress exposure according to the dichlorodihydrofluorescein diacetate (DCFH-DA; “Dichloro-dihydro-fluorescein diacetate (DCFH-DA) assay: a quantitative method for oxidative stress assessment of nanoparticle-treated cells”. Aranda et al. Toxicol In Vitro. 2013, 27(2):954-63.) method. In contact with cells, DCFH-DA is cleaved inside the cell to DCFH which is able to interact with reactive oxygen species (ROS) during oxidative stress leading to fluorescence emission. Consequently, the fluorescence emitted is correlated to the antioxidant property of the tested compound. The cell culture was done on primary cells freshly isolated from biopsies. Normal Human Epidermal Keratinocytes (NHEKs) were seeded in a black plate with a glass bottom at 20′000 cells per well in 96-wells plates with a type I collagen pre-coating in quadruplicate. The cells were incubated for 24 hours in complete medium (Epilife medium supplemented with HKGS) at 37° C. with 5% CO2. […] Finally, the emitted fluorescence was measured in darkness by excitation wavelength at 488 nm and emission wavelength at 525 nm with microplate reader (TECAN). […]

These results are taken from patent publication US20230085721A1, “PIGMENT COMPRISING RAPHANUS SATIVUS EXTRACT AND MONTMORILLONITE” (GIVAUDAN SA, priority 2020, published 2023).

Marks after values point to notes of the source that are not given here.

In the case of `Oc1ccc(C=Cc2cc(O)cc(O)c2)cc1` [Resveratrol], the “Comparison to oxidative stress, no active” value (5 mM TBP, p < 0.001) was −76%***. Besides, the “Mean relative to TBP condition” value (ROS, NHEKs, oxidative stress 5 mM TBP) turned out to be 24.0%.
